In patent publication US7122314B2, “Methods for detecting vancomycin-resistant microorganisms and compositions therefor” (ID Biomedical Corporation, priority 2002, dated 2006) one finds sensitivity, specificity and MIC data, which are given here for 3 molecules.

In one data set the test system is vanA and vanB genes. The experiment in a line: Non-isotopic CPT-EIA VRE screen of enterococcal isolates. To be noted: threshold 0.14 OD650; 27 isolates, five operators. The text has this:
This following example describes a rapid single probe non-isotopic CPT assay for screening dual VRE genes (vanA and vanB) from Enterococcal isolates. The non-isotopic VRE assay, which combines CPT with an enzyme immunoassay (CPT-EIA), is schematically illustrated in FIG. 2. Because of the lack of homology between the vanA and vanB genes, it was not possible to find a common sequence that was suitable for a perfectly complementary CPT chimeric probe. It was necessary to design a probe that had two mismatches to vanA in the 5′ DNA arm and two mismatches to vanB in the 3′ DNA arm. In spite of the mismatches, the probe worked well to discriminate vanA and vanB from vanC and VSE isolates.
The dual detection single chimeric probe specific for detecting vanA and vanB genes are synthesized, fluoresceinated and biotinylated as described in Example 1. The purified thermostable RNase H is prepared as described in Example 3.
The sources of Enterococcal isolates and growth conditions are as described in Example 2. Lysis
The cells are lysed by placing a 1-μL loopful of culture growth in 50 μL of Lysis Reagent. […]
After cycling, 3 drops (˜100 μL) of Cycle Stop Reagent containing sheep polyclonal antifluorescein-horseradish peroxidase (HRP) conjugate and 0.16% SDS in Peroxidase Stabilizing Buffer (DAKO, Mississauga, ON) is added to the cycling reaction. […] The plate is read with a Vmax plate reader at OD650. […]

For data set [1], the system named is VanA phenotype enterococci. The conditions noted are these: inducible resistance; cited from earlier work.

Take “5′-CAT GAT GTG TCG GTa aaa TCT GCA ATA GAG A-3′ (DNA CATGATGTGTCGGTAAAATCTGCAATAGAGA; scissile link, further chemistry not given here) [vanB110-m3]”: in the data set with vanA and vanB genes, the sensitivity is on record as 98.7% and the specificity is listed as 100%.

By MIC is commonly meant the smallest concentration in the dilution series that meets the test's criterion for growth inhibition. Consider `CN[C@H](CC(C)C)C(=O)N[C@H]1C(=O)N[C@@H](CC(N)=O)C(=O)N[C@H]2C(=O)N[C@H]3C(=O)N[C@H](C(=O)N[C@H](C(=O)O)c4cc(O)cc(O)c4-c4cc3ccc4O)[C@H](O)c3ccc(c(Cl)c3)Oc3cc2cc(c3O[C@@H]2O[C@H](CO)[C@@H](O)[C@H](O)[C@H]2O[C@H]2C[C@](C)(N)[C@H](O)[C@H](C)O2)Oc2ccc(cc2Cl)[C@H]1O` [vancomycin], for which the MIC in data set [1] is no less than 64 µg/mL. For the molecule teicoplanin, in data set [1], the MIC is no less than 16 µg/mL.
